Experimental data reported in patent US4548923A, “Muramyl peptides and processes for their manufacture” (Ciba Geigy Corporation, priority 1982, dated 1985).

Assays:
Alveolar rat macrophages = assay: macrophage activation: cytotoxicity of alveolar rat macrophages against 125I-marked tumour cells; type: cell-based
Method: Alveolar rat macrophages are obtained by lung washing, plated out and incubated in vitro for 24 hours either with liposomes that are charged with the active ingredient, or with the active ingredient in physiological salt solution (phosphate buffered saline, PBS), ^125 I-marked tumour cells are added and incubation is continued for a further 72 hours. Subsequently the dead tumour cells are washed away and the number of tumour cells still living is determined on the basis of their radioactivity. […] The specific cytotoxicity [%] is calculated as follows: [formula]
Further details of the above-mentioned test method are described in I. J. Fidler et. al., J. Biol. Response Modifiers 1, 43-55 (1982).

[1] = test for pyrogenity in rabbits (European Pharmacopoeia); type: in vivo; settings: subcutaneous administration, 30 mg/kg
From the text: The test for pyrogenity can be carried out in rabbits in accordance with the instructions given in European Pharmacopoeia, Vol. 2, pages 56-59 (1971).

[2] = Active ingredient in 100 μg of lipsomes per 0.2 ml, 0.2 μg/culture
[3] = Active ingredient in 100 μg of lipsomes per 0.2 ml, 2 μg/culture
[4] = Active ingredient in 100 μg of lipsomes per 0.2 ml, 20 μg/culture
[5] = Active ingredient in 0.2 ml of PBS, 0.2 μg/culture
[6] = Active ingredient in 0.2 ml of PBS, 2 μg/culture
[7] = Active ingredient in 100 μg of lipsomes per 0.2 ml, 0.02 μg/culture
[8] = Active ingredient in 0.2 ml of PBS, 0.02 μg/culture

Compound	Specific cytotoxity [%] (Alveolar rat macrophages; [2])	Specific cytotoxity [%] (Alveolar rat macrophages; [3])	Specific cytotoxity [%] (Alveolar rat macrophages; [4])	Specific cytotoxity [%] (Alveolar rat macrophages; [5])	Specific cytotoxity [%] (Alveolar rat macrophages; [6])	pyrogenic effect [1]	Specific cytotoxity [%] (Alveolar rat macrophages; [7])	Specific cytotoxity [%] (Alveolar rat macrophages; [8])	Specific cytotoxity [%] (Alveolar rat macrophages; Active ingredient in 0.2 ml of PBS, 20 μg/culture)
CCCCCCCCCCCCCCCC(=O)OC[C@H](COP(=O)([O-])OCCNC(=O)[C@H](C)NC(=O)CC[C@@H](NC(=O)[C@H](C)NC(=O)[C@@H](C)O[C@H]1[C@H](O)[C@@H](CO)OC(O)[C@@H]1NC(C)=O)C(=O)OCCCC)OC(=O)CCCCCCCCCCCCCCC.[Na+] (stereo partly drawn) [Active ingredient I, the sodium salt of N-acetylmuramyl-L-alanyl-D-glutamyl-(Cα)-n-butyl ester-(Cγ)-L-alanine-2-(1,2-dipalmitoyl-sn-glycero-3-hydroxyphosphoryloxy)-ethylamide]	56	51	44	39	59	no pyrogenic effect	–	–	–
CCCCCCCCCCCCCCCC(=O)OCC(COP(=O)([O-])OCCNC(=O)C(C)NC(=O)CCC(NC(=O)C(C)NC(=O)C(C)OC1C(O)C(CO)OC(O)C1NC(C)=O)C(N)=O)OC(=O)CCCCCCCCCCCCCCC.[Na+] [sodium salt of N-acetylmuramyl-L-alanyl-D-isoglutaminyl-L-alanine-2-(1,2-dipalmitoyl-sn-glycero-3-hydroxyphosphoryloxy)-ethylamide, reference compound]	–	–	–	–	–	highly pyrogenic	–	–	–
the sodium salt of N--acetylmuramyl-L-valyl-D-glutamyl-(C α)-n-butyl ester-(Cγ)-L-alanine-2-(1,2-dipalmitoyl-sn-glycero-3-hydroxyphosphoryloxy)-ethylamide [compound IV]	68	52	–	18	20	–	64	23	–
the sodium salt of N--acetylmuramyl-L-α-aminobutyryl-D-glutamyl-(Cα)-n-butyl ester-(Cγ)-L-alanine-2-(1,2-dipalmitoyl-sn-glycero-3-hydroxyphosphoryloxy)-ethyl-amide [compound II]	10	23	11	21	48	–	–	–	74
the sodium salt of N-propionylnormuramyl-L-alanyl-D-glutamyl-(Cα)-n-butyl ester-(Cγ)-L-alanine-2-(1,2-dipalmitoyl-sn-glycero-3-hydroxyphosphoryloxy)-ethylamide [Active ingredient II]	76	79	–	81	47	–	64	3	–
